In assay [1] the target is Carbonic anhydrase 12 (Homo sapiens) (UniProt O43570). In words: Activation of human recombinant CA12 after 15 mins by stopped-flow CO2 hydration assay.
The target of assay [2] is Carbonic anhydrase 5B, mitochondrial (Homo sapiens) (UniProt Q9Y2D0). The assay is described as follows: Activation of human recombinant CA5B after 15 mins by stopped-flow CO2 hydration assay.
Assay [3] deals with Carbonic anhydrase 14 (Homo sapiens) (UniProt Q9ULX7). In words: Activation of human recombinant CA14 after 15 mins by stopped-flow CO2 hydration assay.
Chain of Carbonic anhydrase 14 (Homo sapiens) (Q9ULX7 whole entry): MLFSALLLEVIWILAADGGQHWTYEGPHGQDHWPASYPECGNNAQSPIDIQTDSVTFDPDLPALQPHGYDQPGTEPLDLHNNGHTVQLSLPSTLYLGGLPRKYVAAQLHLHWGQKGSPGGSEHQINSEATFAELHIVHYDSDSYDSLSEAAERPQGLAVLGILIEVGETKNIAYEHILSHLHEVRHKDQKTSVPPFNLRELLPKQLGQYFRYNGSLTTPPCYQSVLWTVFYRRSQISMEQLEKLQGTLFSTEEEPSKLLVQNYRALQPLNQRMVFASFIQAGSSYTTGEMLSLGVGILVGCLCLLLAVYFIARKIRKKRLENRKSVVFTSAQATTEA
The target in assay [4] is Carbonic anhydrase 2 (Homo sapiens) (UniProt P00918). The assay is described as follows: Activation of human recombinant CA2 after […] by stopped-flow CO2 hydration assay.
For assay [5], the target named is Carbonic anhydrase 5A, mitochondrial (Homo sapiens) (UniProt P35218). In words: Activation of human recombinant CA5A after 15 mins by stopped-flow CO2 hydration assay.
Chain of Carbonic anhydrase 5A, mitochondrial (Homo sapiens) (P35218 whole entry): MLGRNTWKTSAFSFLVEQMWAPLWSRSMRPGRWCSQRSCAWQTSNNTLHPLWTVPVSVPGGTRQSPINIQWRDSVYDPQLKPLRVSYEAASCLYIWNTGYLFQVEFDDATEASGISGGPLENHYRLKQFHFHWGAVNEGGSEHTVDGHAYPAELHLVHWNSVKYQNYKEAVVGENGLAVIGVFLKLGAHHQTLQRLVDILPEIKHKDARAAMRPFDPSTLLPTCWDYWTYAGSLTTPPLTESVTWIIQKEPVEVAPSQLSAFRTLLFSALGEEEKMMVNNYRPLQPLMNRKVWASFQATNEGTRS
For assay [6], the target named is Carbonic anhydrase 9 (Homo sapiens) (UniProt Q16790). In words: Activation of human recombinant CA9 after 15 mins by stopped-flow CO2 hydration assay.
Assay [7] addresses Carbonic anhydrase 7 (Homo sapiens) (UniProt P43166). The assay is described as follows: Activation of human recombinant CA7 after 15 mins by stopped-flow CO2 hydration assay.
For assay [8], the target named is Carbonic anhydrase 13 (Mus musculus) (UniProt Q9D6N1). The assay is described as follows: Activation of mouse recombinant CA13 after 15 mins by stopped-flow CO2 hydration assay.
Chain of Carbonic anhydrase 13 (Mus musculus) (Q9D6N1 whole entry, looked up): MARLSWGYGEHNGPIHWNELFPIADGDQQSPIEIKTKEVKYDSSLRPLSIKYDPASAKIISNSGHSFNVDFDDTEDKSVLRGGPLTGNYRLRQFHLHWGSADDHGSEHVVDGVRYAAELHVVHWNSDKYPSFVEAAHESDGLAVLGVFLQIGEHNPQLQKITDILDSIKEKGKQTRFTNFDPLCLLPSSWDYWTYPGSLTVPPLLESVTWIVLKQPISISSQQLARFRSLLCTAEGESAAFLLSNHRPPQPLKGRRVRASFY

From ChEMBL document CHEMBL1144196, “Carbonic anhydrase activators: kinetic and X-ray crystallographic study for the interaction of D- and L-tryptophan with the mammalian isoforms I-XIV” (Bioorg Med Chem, 2008) come the findings set out here.

Chain of Carbonic anhydrase 7 (Homo sapiens) (P43166 whole entry): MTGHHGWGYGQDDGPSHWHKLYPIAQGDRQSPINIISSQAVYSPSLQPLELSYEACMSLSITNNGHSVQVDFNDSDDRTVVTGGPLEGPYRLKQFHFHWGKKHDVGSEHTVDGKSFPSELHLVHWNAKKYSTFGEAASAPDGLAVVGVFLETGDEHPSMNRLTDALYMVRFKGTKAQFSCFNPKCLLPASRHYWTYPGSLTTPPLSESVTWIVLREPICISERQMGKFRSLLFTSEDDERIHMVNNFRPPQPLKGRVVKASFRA
Chain of Carbonic anhydrase 12 (Homo sapiens) (O43570 whole entry): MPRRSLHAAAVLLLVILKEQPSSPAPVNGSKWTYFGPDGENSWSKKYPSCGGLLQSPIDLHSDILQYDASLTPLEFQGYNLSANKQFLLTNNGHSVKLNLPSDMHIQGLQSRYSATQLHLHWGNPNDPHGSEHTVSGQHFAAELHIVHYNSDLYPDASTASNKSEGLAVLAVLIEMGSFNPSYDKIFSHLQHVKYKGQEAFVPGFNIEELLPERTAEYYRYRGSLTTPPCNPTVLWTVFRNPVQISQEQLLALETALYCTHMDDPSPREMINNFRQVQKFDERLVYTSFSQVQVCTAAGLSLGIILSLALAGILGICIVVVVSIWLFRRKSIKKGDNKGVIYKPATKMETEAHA
Chain of Carbonic anhydrase 5B, mitochondrial (Homo sapiens) (Q9Y2D0 whole entry): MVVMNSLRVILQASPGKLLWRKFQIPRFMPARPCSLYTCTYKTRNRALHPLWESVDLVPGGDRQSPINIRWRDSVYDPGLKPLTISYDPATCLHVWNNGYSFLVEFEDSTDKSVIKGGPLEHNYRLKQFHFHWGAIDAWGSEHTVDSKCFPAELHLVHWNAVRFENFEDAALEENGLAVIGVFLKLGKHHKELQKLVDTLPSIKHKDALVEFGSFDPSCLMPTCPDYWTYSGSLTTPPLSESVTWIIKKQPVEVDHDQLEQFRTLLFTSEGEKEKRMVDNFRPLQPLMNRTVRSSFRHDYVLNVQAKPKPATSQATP

As to `N[C@H](Cc1c[nH]c2ccccc12)C(=O)O`, the Ka in assay [1] was 28 µM; in assay [2], 1.35 µM; in assay [3], 18 µM; in assay [4], 0.37 µM; in assay [5], 1.24 µM; in assay [6], 43 µM. Further, the Ka in assay [7] stood at 39 µM; in assay [8], 0.81 µM.

For the compound `N[C@@H](Cc1c[nH]c2ccccc12)C(=O)O`, the Ka in assay [1] came to 26 µM; in assay [2], 0.89 µM; in assay [3], 16 µM; in assay [4], 1.13 µM; in assay [5], 1.13 µM; in assay [6], 37 µM. Moreover, the Ka in assay [7] turned out to be 57 µM; in assay [8], 16 µM.

For `CNC[C@@H](O)c1ccc(O)c(O)c1`, the Ka was 0.41 µM in assay [1]; 36 µM in assay [3]; 63 µM in assay [5]; 0.87 µM in assay [6]; 60 µM in assay [7].
